This is an account of results in PubChem BioAssay (NCI).

What all share (assay): DTP human tumour cell line panel, 48 h
In assay [1] the test system is CAKI-1 renal.
Assay [2] relates to HCT-116 colon.
In assay [3] the test system is HOP-62 NSCLC.
Assay [4] concerns HT29 colon.
In assay [5] the test system is KM12 colon.
Assay [6] relates to SF-539 CNS.
Assay [7] concerns SK-OV-3 ovarian.
Assay [8] concerns SN12C renal.
Assay [9] concerns UACC-257 melanoma.
Assay [10] deals with UO-31 renal.
For assay [11], the system named is LOX IMVI melanoma.
Assay [12] concerns SNB-75 CNS.
Assay [13] deals with MCF7 breast.

Molecules are shown by their SMILES.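 These data come from cells grown in 96-well plates and exposed to compound for 48 hours at five concentrations. At the GI50, growth is halved. At the TGI there is no net growth.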

On to `c1ccc(C2CC(N3CCOCC3)=Nc3ccccc3N2)cc1` (stereo not drawn), for which the TGI in assay [1], in assay [2], in assay [3], in assay [4], in [5] and in [6] was more than 100 µM each time. Moreover, the TGI in [7], in assay [8], in assay [9] and in assay [10] was more than 100 µM each time.

Consider `CCOc1ccc(N=Cc2cc(OC)c(OC)c(OC)c2)cc1`, for which the TGI in [1], in assay [2], in assay [3], in [4], in assay [5] and in assay [11] was more than 100 µM each time. In addition, the TGI in [6], in [7], in assay [8], in [12], in [9] and in assay [10] was more than 100 µM in each case.

For the molecule `CC(C)(C)C1CCC2c3c([nH]c4ccccc34)C3C(=O)N(c4ccc(Br)cc4)C(=O)C3C2C1` (stereo not drawn), the TGI in assay [1] came out at 43.8 µM; in [2], 91.9 µM; in assay [3], 39.5 µM; in assay [4], 44.3 µM; in assay [5], 53.8 µM; in assay [11] it was 29.2 µM. The TGI in assay [6] was 38.7 µM; in [8], 27.6 µM; in assay [12], 54.8 µM; in [9], 50.2 µM; in [10], 27.2 µM.

Turning to `CC(O[Si](C)(C)C(C)(C)C)[C@H](NC(=O)OCC(Cl)(Cl)Cl)C(=O)O` (stereo partly drawn), the TGI in assay [2], in [3], in [4], in assay [5], in assay [13] and in assay [6] was more than 100 µM in each case. In addition, the TGI in assay [7], in [8], in assay [9] and in assay [10] was more than 100 µM in each case.

Consider `Cn1cc(-c2ccc(CCOC3CCCCO3)cc2)c2c(C#N)cccc21` (stereo not drawn), for which the TGI is more than 100 µM in [1]; more than 100 µM in assay [2]; more than 100 µM in assay [3]; 45.3 µM in assay [4]; more than 100 µM in assay [5]; more than 100 µM in assay [11]. The TGI in assay [13], in assay [6], in [7], in [8], in assay [9] and in assay [10] was more than 100 µM in each case.

As to `CCN(CC)CC(C)(C)C(=O)/C=C/c1ccc(C)cc1`, the TGI in assay [1] amounted to 29.1 µM; in assay [2], 27.4 µM; in [3], 32.9 µM; in assay [4], 12.3 µM; in assay [5], 19 µM; in assay [11], 24.1 µM. Moreover, the TGI in [6] is 26.2 µM; in assay [7] it was 60.6 µM; in assay [8], 19.8 µM; in [12] it was 23.5 µM; in assay [10], 22.2 µM.

Regarding `OCCOCCO[P+]1(OCCOCCO)n2c3ccc2C(c2ccccc2)=C2C=CC(=N2)C(c2ccccc2)=c2ccc(n21)=C(c1ccccc1)C1=NC(=C3c2ccccc2)C=C1`, the TGI is 3.79 µM in assay [1]; 0.358 µM in assay [2]; 0.358 µM in assay [4]; 0.429 µM in [5]; 0.952 µM in assay [11]; 1.55 µM in assay [13]. The TGI in assay [7] came out at 1.79 µM; in [9] it was 0.124 µM.

For the molecule `CC(C)(C)OC(=O)C1/C(=C/CO)CN1C(=O)OC(C)(C)C` (stereo not drawn), the TGI in assay [1], in [2], in assay [3], in [4], in assay [11] and in assay [13] was more than 100 µM throughout. The TGI in [6], in assay [7], in [8], in [9] and in assay [10] was more than 100 µM throughout.

For `CCOC(=O)c1sc2nc(SC)nc(Nc3ccc(OC)c(OC)c3)c2c1N`, the TGI in assay [1] was more than 100 µM; in [2], more than 100 µM; in assay [3], 26 µM; in assay [4], more than 100 µM; in assay [5], more than 100 µM; in [11], more than 100 µM. In addition, the total growth inhibition concentration (TGI) is more than 100 µM in assay [13]; more than 100 µM in assay [6]; 52.9 µM in assay [7]; more than 100 µM in assay [8]; more than 100 µM in assay [9]; more than 100 µM in assay [10].

In the case of `CN1N=C(c2ccncc2)OC1c1ccc(Cl)c(Cl)c1` (stereo not drawn), the TGI in assay [1], in [2], in assay [3], in assay [4], in assay [5] and in assay [11] was more than 100 µM throughout. In addition, the TGI in assay [13], in [6], in assay [7], in assay [8], in [9] and in assay [10] was more than 100 µM throughout.

For the molecule `Cc1[nH]n(-c2ccccc2)c(=S)c1C(=O)c1ccccc1`, the TGI in assay [1] is more than 100 µM; in assay [5], more than 100 µM; in assay [11], more than 100 µM; in [6] it was more than 100 µM; in assay [7], more than 100 µM; in [8], 45.1 µM. The TGI in assay [12], in assay [9] and in assay [10] was more than 100 µM throughout.

As for `CCC(C)(C)NC1=C(NC(C)=O)C(=O)c2ccccc2C1=O`, the TGI in [2], in assay [3], in assay [4], in [5], in assay [11] and in assay [6] was more than 75 µM each time. The TGI in assay [7] is more than 75 µM; in [8], more than 75 µM; in assay [12] it was more than 75 µM; in [9], 70.7 µM; in assay [10], more than 75 µM.

Turning to `C[n+]1c2ccccc2c(NC(CCC(N)=O)C(=O)O)c2ccccc21` (stereo not drawn), the TGI in assay [2], in [3], in [4], in assay [5], in assay [6] and in [7] was more than 100 µM throughout. Moreover, the TGI in [8], in [12], in assay [9] and in assay [10] was more than 100 µM throughout.

With `CCCCCCCCCCCCCCCCCCNc1ccn(C2OC(CO)C(OP(=O)(O)OCC3CCC(n4ccc(N)nc4=O)O3)C2O)c(=O)n1` (stereo not drawn), the TGI in assay [1], in assay [2], in assay [3], in [4], in assay [5] and in [11] was more than 100 µM each time. For the same molecule, the TGI in assay [6] is more than 100 µM; in [7], more than 100 µM; in assay [8] it was more than 100 µM; in assay [12], more than 100 µM; in assay [9], more than 100 µM; in [10], 56.7 µM.

For the molecule `Cc1ccc(N2C(=O)/C(=c3\s/c(=C(/N)O)c(=N)n3-c3ccccc3)SC2=S)cc1`, the TGI in [2], in [3], in assay [4], in assay [5], in assay [6] and in assay [7] was more than 100 µM throughout. The TGI in assay [12] was 28 µM; in [9], more than 100 µM; in assay [10], more than 100 µM.

With `COC(=O)C1=NN2c3ccccc3CN([C@@H](C)c3ccccc3)C(=O)[C@@H]2C1`, the TGI is 77.7 µM in [1]; more than 100 µM in assay [2]; more than 100 µM in assay [3]; more than 100 µM in assay [4]; 51.3 µM in [5]; 77.1 µM in [11]. The TGI in assay [13] is more than 100 µM; in [6], more than 100 µM; in assay [7], more than 100 µM; in assay [8], more than 100 µM; in assay [9], more than 100 µM; in [10], 60.7 µM.

Turning to `COC(CNC(=O)C(C)NC(=O)C(C)NC(=O)c1ccccc1)OC` (stereo not drawn), the TGI in assay [1], in assay [2], in assay [4], in assay [5], in assay [13] and in [6] was more than 100 µM throughout. Moreover, the TGI in [7], in assay [8], in [12] and in [9] was more than 100 µM throughout.

Regarding `COc1cc(Cn2c3c(c4cc(O)ccc42)C(=O)c2ccccc2C3=O)cc(OC)c1`, the TGI in assay [1] is 55.5 µM; in assay [2], 12.7 µM; in assay [3], 8.78 µM; in [4] it was 16.2 µM; in [5], 54.8 µM; in [11], more than 100 µM. For the same molecule, the TGI was 50.6 µM in [13]; 7.38 µM in assay [6]; 6.68 µM in [7]; 42.2 µM in assay [8]; more than 100 µM in assay [9]; 30.4 µM in [10].

`Clc1ccc2c(NCCNc3nc(-c4ccccc4)cc(-c4ccccc4)n3)ccnc2c1`: the GI50 in [2] was 1.76 µM; in [3], 1.61 µM; in [4], 1.66 µM; in assay [6] it was 1.79 µM; in assay [7], 1.75 µM; in assay [9], 2.03 µM. Further, the GI50 in assay [10] is 1.54 µM. In addition, the TGI in [2] came to 3.43 µM; in [3], 3.05 µM; in assay [4] it was 3.31 µM; in [6], 3.35 µM; in assay [7] it was 3.33 µM; in assay [9], 3.98 µM. In addition, the TGI in assay [10] stood at 3.01 µM.

For the molecule `CC1=NN(C(=O)c2ccc(Cl)cc2)C(=O)/C1=C/c1cccc(O)c1`, the TGI in [1], in assay [2], in assay [3], in assay [4], in assay [5] and in assay [11] was more than 100 µM throughout. Also, the TGI in [6], in [7], in assay [8], in assay [9] and in assay [10] was more than 100 µM each time.

Consider `Cc1ccc2c(c1)NC(=O)C(N=[N+]=[N-])(c1ccccc1)C2=O` (stereo not drawn), for which the total growth inhibition concentration (TGI) in assay [1] is 78.1 µM; in [2] it was 79.4 µM; in [3], more than 100 µM; in assay [4], 43.9 µM; in [5], 40 µM; in assay [11], 37.7 µM. Moreover, the TGI in assay [6] is 81.5 µM; in [7], 84.3 µM; in assay [8] it was 48.2 µM; in assay [12], more than 100 µM; in [9], 79.7 µM; in assay [10], 90.7 µM.

Consider `c1ccc2cc3n[se]nc3cc2c1`, for which the TGI in assay [1], in [4], in [5], in assay [11], in assay [6] and in assay [7] was more than 100 µM throughout. Also, the TGI in assay [8], in assay [12], in assay [9] and in assay [10] was more than 100 µM each time.

Turning to `Nc1nc(Cl)cc(Nc2ccc3c(c2)CCC3)n1`, the TGI in assay [1], in assay [2], in assay [4], in assay [5], in assay [11] and in [13] was more than 100 µM throughout. The TGI in assay [6], in [7], in [8], in assay [9] and in [10] was more than 100 µM each time.

In the case of `Cc1c2n(c3ccccc13)CC1C2N(C)OC1(C)C` (stereo not drawn), the TGI in assay [1], in assay [2], in [3], in assay [4], in [5] and in assay [6] was more than 100 µM each time. Further, the TGI in assay [7], in assay [8], in [12], in assay [9] and in [10] was more than 100 µM each time.

One may read the TGI as the concentration at which net growth stops. As a reminder, the GI50 is the concentration that inhibits growth by half.
